The target in assay [1] is T1, proMMP9(20-445;ΔFnII) (SEQ ID NO:6) (Homo sapiens, UniProt P14780, DEL216-390).
T1 construct: start methionine (N); made in house; host or cells: E. coli BL21(DE3) RIL
T1 sequence (P14780 with tags, fused parts or gaps DEL216-390): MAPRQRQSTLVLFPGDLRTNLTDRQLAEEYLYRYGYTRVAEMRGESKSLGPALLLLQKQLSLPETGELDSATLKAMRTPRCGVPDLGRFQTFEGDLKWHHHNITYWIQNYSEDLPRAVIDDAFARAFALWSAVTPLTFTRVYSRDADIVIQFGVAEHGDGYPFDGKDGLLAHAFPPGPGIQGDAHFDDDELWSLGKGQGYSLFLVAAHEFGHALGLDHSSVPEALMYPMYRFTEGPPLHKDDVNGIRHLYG
Briefly: ThermoFluor binding assay with proMMP9(20-445;ΔFnII). Conditions: pH 7.0. The method in brief: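 proMMP9(20-445;ΔFnII) at 2.8 μM with 50 μM 1,8-ANS in 50 mM HEPES pH 7.0, 100 mM NaCl, 0.001% Tween-20, 2.5 mM MgCl2, 300 μM CaCl2; compounds serially diluted in DMSO. Heated 40–90 °C at 1 °C/min, fluorescence read at 500±25 nm. Tm fit by standard equations; binding fit using DSC/TF-derived thermodynamic parameters.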
(In general: In DSF a fluorescence change marks the thermal transition of the protein.)

Assay [2] concerns the target T2, proMMP9(67-444;ΔFnII) (SEQ ID NO:5) (Homo sapiens, UniProt P14780, DEL216-390).
T2 construct: start methionine (N); made in house; host or cells: E. coli BL21(DE3) RIL
T2 sequence (P14780 with tags, fused parts or gaps DEL216-390): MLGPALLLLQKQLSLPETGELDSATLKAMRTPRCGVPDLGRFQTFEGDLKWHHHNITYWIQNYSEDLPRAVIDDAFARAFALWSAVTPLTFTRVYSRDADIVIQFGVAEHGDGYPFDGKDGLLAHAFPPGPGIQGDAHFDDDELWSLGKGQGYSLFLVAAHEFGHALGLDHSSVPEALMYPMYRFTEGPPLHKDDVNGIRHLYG
The assay is described as follows: ThermoFluor binding assay with proMMP9(67-444;ΔFnII). Conditions: pH 7.0. Summed up: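 Thermal shift binding with 3.5 μM proMMP9(67-444;ΔFnII) and 50 μM 1,8-ANS in 50 mM HEPES pH 7.0, 100 mM NaCl, 2.5 mM MgCl2, 300 μM CaCl2, 0.001% Tween-20, with serially diluted compound. Heated 40 to 90° C at 1° C/min; fluorescence-derived Tm fitted using DSC/ThermoFluor thermodynamic parameters.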

Assay [3] has as its target T3, full-length proMMP9(1-707) (SEQ ID NO:1) (Homo sapiens, UniProt P14780, R574P).
T3 construct: made in house; host or cells: HEK293 (proMMP9, secreted); E. coli (MMP3)
Briefly: proMMP9/MMP3 P126 Activation Assay. In kind it is biochemical. Conditions: 20 nM proMMP9, 20 nM MMP3, 80 min 37° C. As for the experimental part:
The reaction volume was 50 μL. […] Reactivity of residual MMP3 towards P-126 substrate was minimal under these conditions.

In assay [4] the target is proMMP13(1-268) (SEQ ID NO:7) (Homo sapiens, UniProt P45452). Briefly: ThermoFluor binding assay with proMMP13(1-268). More on the design: 6xHis (C); made in house. Particulars: pH 7.0. The method in brief:
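Thermal shift binding with 3.5 μM protein and 25 μM 1,8-ANS in 50 mM HEPES pH 7.0, 100 mM NaCl, 0.001% Tween-20, 2.5 mM MgCl2, 300 μM CaCl2. Samples were heated 40 to 90 °C at 1 °C/min, fluorescence read at 500 nm. Tm shifts across an 11-point DMSO dilution series were fitted with DSC-derived thermodynamic parameters.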

Counter-ions that a name gives are not always drawn.

What is called Kd is the concentration at which binding is half-saturated. Read a low Kd as higher affinity. Broadly, the IC50 is the concentration that gives 50% inhibition. The low end stands for greater potency in that assay, the high end for weaker potency in that assay.

T3 sequence (P14780 20-707 R574P): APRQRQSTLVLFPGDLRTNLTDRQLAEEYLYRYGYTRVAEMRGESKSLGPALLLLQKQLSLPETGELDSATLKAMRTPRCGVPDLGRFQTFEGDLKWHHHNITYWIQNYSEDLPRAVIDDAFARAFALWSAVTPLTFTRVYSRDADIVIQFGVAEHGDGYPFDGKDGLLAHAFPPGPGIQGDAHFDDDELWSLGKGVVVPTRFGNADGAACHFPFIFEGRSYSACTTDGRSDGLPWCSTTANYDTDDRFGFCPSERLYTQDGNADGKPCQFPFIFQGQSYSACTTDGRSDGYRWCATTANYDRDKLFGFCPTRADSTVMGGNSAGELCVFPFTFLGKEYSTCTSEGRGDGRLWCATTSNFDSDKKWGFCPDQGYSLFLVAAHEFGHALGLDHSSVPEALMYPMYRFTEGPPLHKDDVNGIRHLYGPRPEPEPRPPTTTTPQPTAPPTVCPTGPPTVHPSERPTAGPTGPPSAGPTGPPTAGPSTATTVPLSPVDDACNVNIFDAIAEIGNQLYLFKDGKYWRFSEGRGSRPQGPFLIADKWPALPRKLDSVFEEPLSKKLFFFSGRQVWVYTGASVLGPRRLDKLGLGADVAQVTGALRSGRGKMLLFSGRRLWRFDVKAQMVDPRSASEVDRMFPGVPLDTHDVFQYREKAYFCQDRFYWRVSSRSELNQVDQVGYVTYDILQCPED

`Cc1nc(C(=O)NC2CCN(C(C)C)CC2)sc1-c1csc(Nc2cc(C(N)=O)ccc2OC(C)C)n1` [Example 111, 2-(5-Carbamoyl-2-isopropoxy-phenylamino)-4′-methyl-[4,5′]bithiazolyl-2′-carboxylic acid (1-isopropyl-piperidin-4-yl)-amide.TFA]: the results for the Kd in assay [1], in assay [2] and in assay [4] were 0.086 µM, 0.29 µM and 0.36 µM, respectively. The compound also gave an IC50 in assay [3] of 0.081 µM.

In the case of `Cc1nc(C(=O)N2CCCN(C(C)C)CC2)sc1-c1csc(Nc2cc(C(N)=O)ccc2OC(C)C)n1` [Example 112, 4-Isopropoxy-3-[2′-(4-isopropyl-[1,4]diazepane-1-carbonyl)-4′-methyl-[4,5]bithiazolyl-2-ylamino]-benzamide.TFA], the Kd in assay [1] was 1.4 µM; in assay [2], 2.2 µM; in assay [4], greater than 57 µM. Also, half-maximal inhibition in assay [3] (IC50) was put at 0.52 µM.

Consider `Cc1nc(C(=O)NC2CCN(C)CC2)sc1-c1csc(Nc2cc(C(N)=O)ccc2OC(C)C)n1` [Example 113, 2-(5-Carbamoyl-2-isopropoxy-phenylamino)-4′-methyl-[4,5′]bithiazolyl-2′-carboxylic acid (1-methyl-piperidin-4-yl)-amide.TFA], for which the Kd in assay [1] is 1.5 µM; in assay [2], 1.9 µM; in assay [4] it was greater than 57 µM. This compound also registered an IC50 in assay [3] of 0.57 µM.

In the case of `CCN1CCCN(C(=O)c2nc(C)c(-c3csc(Nc4cc(C(N)=O)ccc4OC(C)C)n3)s2)CC1` [Example 114, 3-[2′-(4-Ethyl-[1,4]diazepane-1-carbonyl)-4′-methyl-[4,5′]bithiazolyl-2-ylamino]-4-isopropoxy-benzamide.TFA], the Kd is 0.69 µM in assay [1], 0.96 µM in assay [2] and 1.8 µM in assay [4]. The compound further yielded an IC50 in assay [3] of 0.31 µM.

As for `CCOc1ccc(C(N)=O)cc1Nc1nc(-c2sc(C(=O)N3CCN(C)CC3)nc2C)cs1` [Example 115, 4-Ethoxy-3-[4′-methyl-2′-(4-methyl-piperazine-1-carbonyl)-[4,5′]bithiazolyl-2-ylamino]-benzamide.TFA], the figures for the Kd in assay [1], in assay [2] and in assay [4] were 2.8 µM, 3.8 µM and 6.4 µM, respectively. Besides, the half-maximal inhibitory concentration (IC50) in assay [3] is 0.88 µM.

Regarding `CCOc1ccc(C(N)=O)cc1Nc1nc(-c2sc(C(=O)N3CCCN(C(C)C)CC3)nc2C)cs1` [Example 116, 4-Ethoxy-3-[2′-(4-isopropyl-[1,4]diazepane-1-carbonyl)-4′-methyl-[4,5]bithiazolyl-2-ylamino]-benzamide.TFA], the equilibrium dissociation constant (Kd) in assay [1] worked out at 2.7 µM; in assay [2] it was 1.4 µM; in assay [4], 6.7 µM. This compound also gave an IC50 in assay [3] of 0.5 µM.

On to `CCOc1ccc(C(N)=O)cc1Nc1nc(-c2sc(C(=O)N3CCN(CC)CC3)nc2C)cs1` [Example 117, 4-Ethoxy-3-[2′-(4-ethyl-piperazine-1-carbonyl)-4′-methyl-[4,5]bithiazolyl-2-ylamino]-benzamide.TFA], for which the Kd in assay [1] is 0.68 µM; in assay [2], 2 µM; in assay [4] it was 6.9 µM. For the same compound, the concentration for half-maximal inhibition (IC50) in assay [3] was determined as 0.67 µM.

As for `CCOc1ccc(C(N)=O)cc1Nc1nc(-c2sc(C(=O)N3CCN(C(C)C)CC3)nc2C)cs1` [Example 118, 4-Ethoxy-3-[2′-(4-isopropyl-piperazine-1-carbonyl)-4′-methyl-[4,5]bithiazolyl-2-ylamino]-benzamide.TFA], the dissociation constant (Kd) stood at 0.64 µM in assay [1], 1.2 µM in assay [2] and 5.5 µM in assay [4]. For the same compound, the IC50 in assay [3] came out at 1.1 µM.

In the case of `CCOc1ccc(C(N)=O)cc1Nc1nc(-c2sc(C(=O)N3CCCN(C)CC3)nc2C)cs1` [Example 119, 4-Ethoxy-3-[4′-methyl-2′-(4-methyl-[1,4]diazepane-1-carbonyl)-[4,5′]bithiazolyl-2-ylamino]-benzamide.TFA], the Kd amounted to 3.3 µM in assay [1], 2.2 µM in assay [2] and 6.2 µM in assay [4]. In addition, in assay [3], 0.52 µM corresponded to half-maximal inhibition (IC50).

With `CCOc1ccc(C(N)=O)cc1Nc1nc(-c2sc(C(=O)N3CCCN(CC)CC3)nc2C)cs1` [Example 120, 4-Ethoxy-3-[2′-(4-ethyl-[1,4]diazepane-1-carbonyl)-4′-methyl-[4,5]bithiazolyl-2-ylamino]-benzamide.TFA], the Kd in assay [1] was 2.5 µM; in assay [2] it was 1.6 µM; in assay [4], 5.6 µM. Also, in assay [3], it took 0.48 µM to reach half-maximal inhibition (IC50).

On to `CCOc1ccc(C(N)=O)cc1Nc1nc(-c2sc(C(=O)NC3CCN(C)CC3)nc2C)cs1` [Example 121, 2-(5-Carbamoyl-2-ethoxy-phenylamino)-4′-methyl-[4,5′]bithiazolyl-2′-carboxylic acid (1-methyl-piperidin-4-yl)-amide.TFA], for which the Kd in assay [1] was 2.4 µM; in assay [2], 1.2 µM; in assay [4], 8.7 µM. For the same compound, in assay [3], half-maximal inhibition (IC50) required 0.37 µM.

Consider `CCOc1ccc(C(N)=O)cc1Nc1nc(-c2sc(C(=O)NC3CCN(C(C)C)CC3)nc2C)cs1` [Example 122, 2-(5-Carbamoyl-2-ethoxy-phenylamino)-4′-methyl-[4,5′]bithiazolyl-2′-carboxylic acid (1-isopropyl-piperidin-4-yl)-amide.TFA], for which the Kd in assay [1] was determined as 0.83 µM; in assay [2], 0.67 µM; in assay [4], 4.9 µM. For the same compound, in assay [3], the IC50 came out at 0.25 µM.

With `CCOc1ccc(C(N)=O)cc1Nc1nc(-c2sc(C(=O)N(C)CCN(C)C)nc2C)cs1` [Example 123, 2-(5-Carbamoyl-2-ethoxy-phenylamino)-4′-methyl-[4,5′]bithiazolyl-2′-carboxylic acid (2-dimethylamino-ethyl)-methyl-amide.TFA], the Kd in assay [1] is 0.28 µM; in assay [2], 1 µM; in assay [4], 1.8 µM. The compound also yielded an IC50 in assay [3] of 0.44 µM.

On to `Cc1nc(CN2CCOCC2)sc1-c1csc(Nc2cc(C(N)=O)ccc2OC(C)C)n1` [Example 124, 4-Isopropoxy-3-(4′-methyl-2′-morpholin-4-ylmethyl-[4,5′]bithiazolyl-2-ylamino)-benzamide.TFA], for which the Kd in assay [1] amounted to 0.65 µM; in assay [2], 3.7 µM; in assay [4], 6.1 µM. In assay [3], the midpoint of inhibition, the IC50, lay at 0.67 µM.

As to `Cc1nc(CN2CCN(C(C)C)CC2)sc1-c1csc(Nc2cc(C(N)=O)ccc2OC(C)C)n1` [Example 125, 4-Isopropoxy-3-[2′-(4-isopropyl-piperazin-1-ylmethyl)-4′-methyl-[4,5]bithiazolyl-2-ylamino]-benzamide.TFA], the Kd was determined as 0.58 µM in assay [1], 3.2 µM in assay [2] and 4.9 µM in assay [4]. In assay [3], this compound showed an IC50 of 0.78 µM.

On to `Cc1nc(CN2CCCN(C)CC2)sc1-c1csc(Nc2cc(C(N)=O)ccc2OC(C)C)n1` [Example 126, 4-Isopropoxy-3-[4′-methyl-2′-(4-methyl-[1,4]diazepan-1-ylmethyl)-[4,5′]bithiazolyl-2-ylamino]-benzamide.TFA], for which the equilibrium dissociation constant (Kd) in assay [1] came out at 1.1 µM; in assay [2], 4.7 µM; in assay [4], 11 µM. The compound also showed an IC50 in assay [3] of 0.77 µM.

For `Cc1nc(CN2CCC(O)CC2)sc1-c1csc(Nc2cc(C(N)=O)ccc2OC(C)C)n1` [Example 127, 3-[2′-(4-Hydroxy-piperidin-1-ylmethyl)-4′-methyl-[4,5′]bithiazolyl-2-ylamino]-4-isopropoxy-benzamide.TFA], the Kd in assay [1] came out at 0.73 µM; in assay [2], 3.5 µM; in assay [4], 8.6 µM. In assay [3], this compound displayed an IC50 of 0.65 µM.
